{
  "source": "paper PMC10874388",
  "about": "“Cyclic peptides discriminate BCL-2 and its clinical mutants from BCL-XL by engaging a single-residue discrepancy” (Nature Communications, 2024)",
  "key": {"BCL-XL": {"biological_target": "T1, BCL-XL (Homo sapiens, UniProt Q07817, DEL27-81)", "T1 construct": "human BCL-XL (residues 1–210, with 27–81 and 210–233 removed); vector-borne tag of pET-22b (Ni-NTA purification implies a His tag); made in house; host or cells: E. coli BL21 (DE3)", "assay": "SPR binding assay, BCL-XL", "conditions": "affinity fitting, mean ± SD of three independent experiments, 25 °C", "text": "(§1) The DNA fragments encoding human BCL-XL ([…], with […] removed), BCL-w (residues 6–152), MCL-1 (residues 152–308) and BFL-1 (residues 1–151) as previously reported[18] were cloned into a pET-22b vector (Invitrogen), respectively. A chimeric human BCL-2 (including residues 1–50 and 92–207) was constructed, by removing the internal long loop (residues 51–91) and replacing its residues 35–50 with residues 33–48 of BCL-XL to solubilize the protein[14], and then it was cloned into a pET28a-Sumo vector (Invitrogen). All BCL-2 mutants (G101V, F104L, Y103D, D111A) were generated by mutagenic PCR, according to the QuikChange (Stratagene) protocol.\n(§2) SPR assays were performed using a Biacore T200 instrument in running buffer consisting 10 mM PBS, 50 μM EDTA and 0.05% Tween-20 at 25 °C. Biotinylated proteins were immobilized on a CAP sensor chip (Cytiva, 28920234). […] The binding affinities were quantified by the Biacore evaluation software using 1:1 binding model. The reproducibility of the assays was confirmed by performing replicate determinations."}, "BCL-2-D111A": {"biological_target": "T2, BCL-2-D111A (Homo sapiens, UniProt P10415, D111A/DEL35-91/INS34DVEENRTEAPEGTESE)", "T2 construct": "A chimeric human BCL-2 (including residues 1–50 and 92–207) was constructed; SUMO (pET28a-Sumo vector); made in house; host or cells: E. coli BL21 (DE3)", "assay": "SPR binding assay, BCL-2 D111A mutant"}, "BCL-2-G101V": {"biological_target": "T3, BCL-2-G101V (Homo sapiens, UniProt P10415, DEL35-91/G101V/INS34DVEENRTEAPEGTESE)", "T3 construct": "A chimeric human BCL-2 (including residues 1–50 and 92–207) was constructed; SUMO (pET28a-Sumo vector); made in house; host or cells: E. coli BL21 (DE3)", "assay": "SPR binding assay, BCL-2 G101V mutant", "conditions": "affinity fitting, mean ± SD of three independent experiments", "text": "as §1, §2"}, "BCL-2-D103Y": {"biological_target": "T4, BCL-2-D103Y (Homo sapiens, UniProt P10415, D103Y/DEL35-91/INS34DVEENRTEAPEGTESE)", "T4 construct": "A chimeric human BCL-2 (including residues 1–50 and 92–207) was constructed; SUMO (pET28a-Sumo vector); made in house; host or cells: E. coli BL21 (DE3)", "assay": "SPR binding assay, BCL-2 D103Y mutant", "conditions": "affinity fitting, mean ± SD of three independent experiments", "text": "as §1, §2"}, "BCL-2-F104L": {"biological_target": "T5, BCL-2-F104L (Homo sapiens, UniProt P10415, DEL35-91/F104L/INS34DVEENRTEAPEGTESE)", "T5 construct": "A chimeric human BCL-2 (including residues 1–50 and 92–207) was constructed; SUMO (pET28a-Sumo vector); made in house; host or cells: E. coli BL21 (DE3)", "assay": "SPR binding assay, BCL-2 F104L mutant", "conditions": "affinity fitting, mean ± SD of three independent experiments", "text": "as §1, §2"}, "BCL-w": {"biological_target": "T6, BCL-w (Homo sapiens, UniProt Q92843)", "T6 construct": "BCL-w (residues 6–152); vector-borne tag of pET-22b (Ni-NTA purification implies a His tag); made in house; host or cells: E. coli BL21 (DE3)", "T6 sequence (Q92843 6-152)": "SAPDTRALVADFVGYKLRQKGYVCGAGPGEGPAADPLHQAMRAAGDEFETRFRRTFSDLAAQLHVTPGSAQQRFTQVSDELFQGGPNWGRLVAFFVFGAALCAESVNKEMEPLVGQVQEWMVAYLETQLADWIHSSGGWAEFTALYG", "assay": "SPR binding assay, BCL-w", "conditions": "affinity fitting, mean ± SD of three independent experiments", "text": "as §1, §2"}, "MCL-1": {"biological_target": "MCL-1 (Homo sapiens, UniProt Q07820)", "sequence (Q07820 152-308)": "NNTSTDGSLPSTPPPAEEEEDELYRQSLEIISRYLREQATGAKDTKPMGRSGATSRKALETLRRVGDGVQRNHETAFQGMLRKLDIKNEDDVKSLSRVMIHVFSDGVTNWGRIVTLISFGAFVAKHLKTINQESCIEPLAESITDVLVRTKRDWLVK", "assay": "SPR binding assay, MCL-1", "conditions": "NB = no binding", "text": "as §1, §2"}, "BFL-1": {"biological_target": "T7, BFL-1 (Homo sapiens, UniProt Q16548)", "T7 construct": "BFL-1 (residues 1–151); vector-borne tag of pET-22b (Ni-NTA purification implies a His tag); made in house; host or cells: E. coli BL21 (DE3)", "T7 sequence (Q16548 1-151)": "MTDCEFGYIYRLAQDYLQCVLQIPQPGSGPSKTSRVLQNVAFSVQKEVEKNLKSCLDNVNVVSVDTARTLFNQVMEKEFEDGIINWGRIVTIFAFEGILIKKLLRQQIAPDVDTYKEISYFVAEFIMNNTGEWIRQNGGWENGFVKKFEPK", "assay": "SPR binding assay, BFL-1", "conditions": "NB = no binding", "text": "as §1, §2"}},
  "note": "Starred links: 1 amine or outer side, 2 acyl side, 3 side chain; linkers in the order of their positions; H or OH if unused. Positions of bridges follow the written chain, without caps; N, C: chain ends. Residues, ends and D or L forms follow the SMILES beside them. X1 = O=C(C[*:2])NCCNC(=O)c1ccc(C2=N[C@H](C(=O)[*:1])CS2)cc1",
  "data": [
    {"smiles": "C[C@@H]1NC(=O)[C@@H]2CCCN2C(=O)[C@@H]2CSC(=N2)c2ccc(cc2)C(=O)NCCNC(=O)CSC[C@@H](C(N)=O)NC(=O)[C@H](CCC(=O)O)NC(=O)[C@H](Cc2ccc(O)cc2)NC(=O)[C@H](CC(=O)O)NC(=O)[C@H](Cc2c[nH]c3ccccc23)NC(=O)CNC(=O)[C@H](Cc2ccc(O)cc2)NC(=O)[C@H](CCCNC(=N)N)NC1=O", "note": "[cp1] (PARYGWDYEC-NH2; linker N-10 via X1)", "values": [
      {"measurement": "Kd", "setting": "BCL-XL", "result": "> 12100", "unit": "nM"},
      {"measurement": "Kd", "setting": "BCL-2-D111A", "result": "5340 ± 1000", "unit": "nM"},
      {"measurement": "Kd", "setting": "BCL-2-G101V", "result": "1000 ± 130", "unit": "nM"},
      {"measurement": "Kd", "setting": "BCL-2-D103Y", "result": "360 ± 30", "unit": "nM"},
      {"measurement": "Kd", "setting": "BCL-2-F104L", "result": "1620 ± 360", "unit": "nM"},
      {"measurement": "Kd", "setting": "BCL-w", "result": "1980 ± 390", "unit": "nM"},
      {"measurement": "Kd", "setting": "MCL-1", "result": "> 12800", "unit": "nM"},
      {"measurement": "Kd", "setting": "BFL-1", "result": "> 12800", "unit": "nM"}
    ]}
  ]
}
